Earlier results, collected in US20210113561A1, “PHARMACEUTICAL COMPOSITION, METHODS FOR TREATING AND USES THEREOF” (Boehringer Ingelheim International GmbH, priority 2018, published 2021).

Key:
[1] = metformin on its own, in the diabetic
[2] = patients with type 2 diabetes mellitus at high risk for cardiovascular events
SGLT2 = target: T1, SGLT2 (Homo sapiens, UniProt P31639)
T1 sequence (P31639 1-672): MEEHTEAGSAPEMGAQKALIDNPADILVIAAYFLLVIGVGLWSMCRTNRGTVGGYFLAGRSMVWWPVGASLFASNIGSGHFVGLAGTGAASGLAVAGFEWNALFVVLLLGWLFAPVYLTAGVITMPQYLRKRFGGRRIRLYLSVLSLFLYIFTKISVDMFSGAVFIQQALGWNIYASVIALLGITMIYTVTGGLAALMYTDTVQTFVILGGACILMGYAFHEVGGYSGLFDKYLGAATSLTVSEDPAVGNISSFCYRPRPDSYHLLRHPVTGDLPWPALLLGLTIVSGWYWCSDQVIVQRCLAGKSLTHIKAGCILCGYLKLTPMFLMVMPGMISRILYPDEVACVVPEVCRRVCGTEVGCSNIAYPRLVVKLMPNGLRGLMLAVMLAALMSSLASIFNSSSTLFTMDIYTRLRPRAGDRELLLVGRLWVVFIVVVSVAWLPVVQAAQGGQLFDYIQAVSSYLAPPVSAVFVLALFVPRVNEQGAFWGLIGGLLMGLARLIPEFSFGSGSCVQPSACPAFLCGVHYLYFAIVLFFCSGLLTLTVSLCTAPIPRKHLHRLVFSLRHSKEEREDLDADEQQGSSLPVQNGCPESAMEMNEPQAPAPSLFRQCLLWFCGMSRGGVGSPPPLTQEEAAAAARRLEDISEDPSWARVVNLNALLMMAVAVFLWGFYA

| Structure (SMILES) | average improvement in the HbA1c value [1] | rates of death from any cause [2] | rates of the primary composite cardiovascular outcome [2] | selectivity SGLT2 versus SGLT1 (SGLT2) |
| --- | --- | --- | --- | --- |
| CN(C)C(=N)N=C(N)N [metformin] | 1.0-1.5% |  |  |  |
| OC[C@H]1O[C@@H](c2ccc(Cl)c(Cc3ccc(O[C@H]4CCOC4)cc3)c2)[C@H](O)[C@@H](O)[C@@H]1O [empagliflozin] |  | significantly lower rates | significantly lower rates | high selectivity |
